Measurements: PMC3226889 (Biochemistry, 2011)

Assays:
APE1^ΔN38 = APE1^ΔN38 (Homo sapiens, UniProt P27695); assay: NMR chemical shift perturbation titration; type: binding
APE1 redox activity = settings: cell-based studies; ref [15], [17], [21], [23], [48]; cited from earlier work
p50 (NF-kB subunit) = p50 (NF-kB subunit) (human, UniProt P19838 42-367); assay: EMSA
p50 (NF-kB subunit), sequence (P19838 42-367): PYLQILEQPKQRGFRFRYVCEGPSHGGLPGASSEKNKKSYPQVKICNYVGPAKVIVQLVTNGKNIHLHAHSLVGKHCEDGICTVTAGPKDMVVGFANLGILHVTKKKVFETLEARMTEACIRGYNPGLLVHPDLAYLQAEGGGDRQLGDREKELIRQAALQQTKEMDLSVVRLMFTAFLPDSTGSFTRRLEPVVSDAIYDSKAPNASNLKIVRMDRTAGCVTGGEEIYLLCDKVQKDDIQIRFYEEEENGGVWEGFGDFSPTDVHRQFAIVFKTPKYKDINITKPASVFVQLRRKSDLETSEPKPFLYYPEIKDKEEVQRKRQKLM

APE1^ΔN38, sequence (P27695 39-318): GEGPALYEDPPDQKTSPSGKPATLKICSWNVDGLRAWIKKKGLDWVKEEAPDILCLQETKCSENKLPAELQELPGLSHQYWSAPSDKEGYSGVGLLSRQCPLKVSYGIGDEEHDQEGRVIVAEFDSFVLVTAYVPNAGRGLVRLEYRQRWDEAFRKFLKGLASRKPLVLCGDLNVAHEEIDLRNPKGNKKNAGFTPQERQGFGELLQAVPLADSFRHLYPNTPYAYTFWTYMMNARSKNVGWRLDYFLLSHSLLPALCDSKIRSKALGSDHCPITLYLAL

With `C/C(=C\C1=C(Cl)C(=O)c2ccccc2C1=O)C(=O)O` [RN7-60, (E)-3-(3-chloro-1,4-naphthoquinon-2-yl)-2-methylpropenoic acid] the Kd (APE1^ΔN38) was 264 ± 72 µM, the “covalent modification of Cys residues” value (APE1^ΔN38; NMR conditions including 0.5 mM DTT) was “no evidence for covalent modification of any Cys residue” and the “fold tighter affinity of RN7-60 than E3330” value (APE1^ΔN38; similar conditions) was “about 2 fold”.

In the case of `CCCCCCCCC/C(=C\C1=C(C)C(=O)C(OC)=C(OC)C1=O)C(=O)O` [E3330, (E)-3-[2-(5,6-dimethoxy-3-methyl-1,4-benzoquinonyl)]-2-nonylpropenoic acid], the “E3330 concentrations at which observed effects occur” value (APE1 redox activity) is listed as 5 to 50 µM.

B1: p50 DNA (dsDNA)
DNA 1: AAGGGACTTTCCGCTGGGGATTCCAT
DNA 2: ATGGAATCCCCAGCGGAAAGTCCCTT
modifications: 3'-terminal T of strand 1 is fluorescein-dT (printed as Y)
B1: binds (p50 (NF-kB subunit)).
